This passage reports IC50 results from patent US9376418B2, “Substituted pyridine spleen tyrosine kinase (SYK) inhibitors” (Merck Sharp & Dohme Corp., priority 2012, dated 2016).

The assay addresses T1, recombinant human GST-SYK (Homo sapiens, UniProt P43405).
T1 construct: purchased Carna Biosciences 08-176
In words: Homogeneous Time-Resolved Fluorescence (HTRF) assay for the recombinant human Syk enzyme. It is filed as biochemical. The following applies: HTRF assay, recombinant human GST-SYK; IC50 given as class symbols; read-out: rhSYK Activity. Summed up: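 Phosphorylation of a biotinylated Syk substrate peptide (250 nM) was run for 45 min at room temperature with 25 μM ATP and 5 mM Mg. It followed a 10-min preincubation of GST-hSYK ([…]) with compound in 15 mM Tris-HCl pH 7.5, 2 mM DTT. Product was detected by time-resolved fluorescence using a europium anti-phosphotyrosine antibody plus SA-APC in EDTA-containing quench buffer.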
In the case of `Cc1cc(Nc2nccc(C(F)(F)F)n2)cc(-c2ccncc2)c1` [Example 2.124, N-(3-methyl-5-pyridin-4-ylphenyl)-4-(trifluoromethyl)pyrimidin-2-amine], the IC50 was under 100 nM.
The figure for `COc1ccnc(Nc2cc(C)cc(-c3ccc(CCC(=O)O)nc3)c2)n1` [Example 2.83, 3-(5-{3-[(4-methoxypyrimidin-2-yl)amino]-5-methylphenyl}pyridin-2-yl)propanoic acid] is under 100 nM.
Regarding `Cc1cc(Nc2nccc(C(F)(F)F)n2)cc(-c2ccc(C(=O)Nc3cncnc3)nc2)c1` [Example 16.29, 5-(3-methyl-5-{[4-(trifluoromethyl)pyrimidin-2-yl]amino}phenyl)-N-pyrimidin-5-ylpyridine-2-carboxamide], the IC50 is 100 to 1000 nM.
Take `Cc1cc(Nc2nccc(C(F)(F)F)n2)cc(-c2ccc(C(C)(O)[C@H]3CC[C@H](C(=O)O)CC3)nc2)c1` (single isomer, unassigned) [Example 9.30, trans-4-{(1R or 1S)-1-hydroxy-1-[5-(3-methyl-5-{[4-(trifluoromethyl)pyrimidin-2-yl]amino}phenyl)pyridin-2-yl]ethyl}cyclohexanecarboxylic acid]: the IC50 was under 100 nM.
The figure for `Cc1cc(Nc2nccc(C(F)(F)F)n2)cc(-c2ccc(C(=O)N3C[C@H]4C[C@@H]3CO4)nc2)c1` [Example 16.40, N-(3-methyl-5-{6-[(1R,4R)-2-oxa-5-azabicyclo[2.2.1]hept-5-ylcarbonyl]pyridin-3-yl}phenyl)-4-(trifluoromethyl)pyrimidin-2-amine] is under 100 nM; for `Cc1cc(Nc2nccc(C(F)(F)F)n2)cc(-c2ccc(C34CCC(C(=O)O3)C(C)(C)C4)nc2)c1` (single isomer, unassigned) [Example 9.10, (1S,4R or 1R,4S) 5,5-dimethyl-1-[5-(3-methyl-5-{[4-(trifluoromethyl)pyrimidin-2-yl]amino}phenyl)pyridin-2-yl]-2-oxabicyclo[2.2.2]octan-3-one] it is 100 to 1000 nM; for `Cc1cc(Nc2nccc(C(F)(F)F)n2)cc(-c2ccc(N3CCC([C@@H]4CCCC[C@H]4C(=O)O)CC3)nc2)c1` [Example 7.147, (1R,2S)-2-{1-[5-(3-methyl-5-{[4-(trifluoromethyl)pyrimidin-2-yl]amino}phenyl)pyridin-2-yl]piperidin-4-yl}cyclohexanecarboxylic acid] it is under 100 nM.
As for `Cc1cc(Nc2nccc(C(F)(F)F)n2)cc(-c2ccc(N[C@@H](Cc3c[nH]c4ccccc34)C(=O)O)nc2)c1` [Example 7.100, N-[5-(3-methyl-5-{[4-(trifluoromethyl)pyrimidin-2-yl]amino}phenyl)pyridin-2-yl]-L-tryptophan], the IC50 was under 100 nM.
With `Cc1cc(Nc2nccc(C(F)(F)F)n2)cc(-c2cncc(C3(O)CCCC(C(=O)O)C3)c2)c1` (stereo not shown) [Example 9.66, 3-hydroxy-3-[5-(3-methyl-5-{[4-(trifluoromethyl)pyrimidin-2-yl]amino}phenyl)pyridin-3-yl]cyclohexanecarboxylic acid] the figure was under 100 nM.
With `Cc1cc(Nc2nccc(C(F)(F)F)n2)cc(-c2ccc(N[C@@H](Cc3ccc(O)cc3)C(=O)O)nc2)c1` [Example 7.98, N-[5-(3-methyl-5-{[4-(trifluoromethyl)pyrimidin-2-yl]amino}phenyl)pyridin-2-yl]-L-tyrosine] the figure was under 100 nM; with `Cc1cc(Nc2nccc(C(F)F)n2)cc(-c2ccc(C(C)(O)C3CCC(C(=O)O)CC3)nc2)c1` (single isomer, unassigned) [Example 9.29, trans-4-{(1R or 1S)-1-[5-(3-{[4-(difluoromethyl)pyrimidin-2-yl]amino}-5-methylphenyl)pyridin-2-yl]-1-hydroxyethyl}cyclohexanecarboxylic acid], under 100 nM.
The figure for `Cc1cc(Nc2nccc(C(F)(F)F)n2)cc(-c2ccnc(N3CCCC4(CCCCO4)C3)c2)c1` (stereo not shown) [Example 15.26, N-{3-methyl-5-[2-(1-oxa-8-azaspiro[5.5]undec-8-yl)pyridin-4-yl]phenyl}-4-(trifluoromethyl)pyrimidin-2-amine] is 1000 to 10000 nM; for `Cc1cc(Nc2nccc(C(F)(F)F)n2)cc(-c2ccc(S(=O)(=O)NC3CCNC3=O)nc2)c1` (stereo not shown) [Example 21.3, 5-(3-methyl-5-{[4-(trifluoromethyl)pyrimidin-2-yl]amino}phenyl)-N-(2-oxopyrrolidin-3-yl)pyridine-2-sulfonamide] it is under 100 nM; for `Cc1cc(Nc2nccc(C3CC3)n2)cc(-c2ccc(N[C@H]3CC[C@H](C(=O)O)CC3)nc2)c1` [Example 2.104, trans-4-[(5-{3-[(4-cyclopropylpyrimidin-2-yl)amino]-5-methylphenyl}pyridin-2-yl)amino]cyclohexanecarboxylic acid] it is under 100 nM.
As to `CNC(=O)CN(C)c1ccc(-c2cc(C)cc(Nc3nccc(C(F)(F)F)n3)c2)cn1` [Example 7.28, N,N~2~-dimethyl-N~2~-[5-(3-methyl-5-{[4-(trifluoromethyl)pyrimidin-2-yl]amino}phenyl)pyridin-2-yl]glycinamide], the IC50 is under 100 nM.
Regarding `Cc1cc(Nc2nccc(C3CC3)n2)cc(-c2cc(CCC(=O)O)ccn2)c1` [Example 2.24, 3-(2-{3-[(4-cyclopropylpyrimidin-2-yl)amino]-5-methylphenyl}pyridin-4-yl)propanoic acid], the IC50 is under 100 nM.
Consider `Cc1cc(Nc2nccc(C(F)(F)F)n2)cc(-c2ccnc(C(O)(CO)CO)c2)c1` [Example 9.65, 2-[4-(3-methyl-5-{[4-(trifluoromethyl)pyrimidin-2-yl]amino}phenyl)pyridine-2-yl]propane-1,2,3-triol], for which the IC50 was under 100 nM.
The figure for `COCC(O)CNC(=O)c1ccc(-c2cc(C)cc(Nc3nccc(C(F)(F)F)n3)c2)cn1` (stereo not shown) [Example 16.45, N-(2-hydroxy-3-methoxypropyl)-5-(3-methyl-5-{[4-(trifluoromethyl)pyrimidin-2-yl]amino}phenyl)pyridine-2-carboxamide] is under 100 nM; for `Cc1cc(Nc2nccc(C)n2)cc(-c2ccc([C@]3(O)CC[C@H](C(=O)O)CC3)nc2)c1` [Example 9.38, trans-4-hydroxy-4-(5-{3-methyl-5-[(4-methylpyrimidin-2-yl)amino]phenyl}pyridin-2-yl)cyclohexanecarboxylic acid] it is under 100 nM.
With `Cc1cc(Nc2nccc(C(F)(F)F)n2)cc(-c2ccc(C(=O)N(CCO)CCO)nc2)c1` [Example 16.60, N,N-bis(2-hydroxyethyl)-5-(3-methyl-5-{[4-(trifluoromethyl)pyrimidin-2-yl]amino}phenyl)pyridine-2-carboxamide] the figure was under 100 nM.
On to `COc1ccnc(Nc2cc(C)cc(-c3ccnc(N)c3)c2)n1` [Example 4.1, N-[3-(2-aminopyridin-4-yl)-5-methylphenyl]-4-methoxypyrimidin-2-amine], for which the IC50 was under 100 nM.
Regarding `Cc1cc(Nc2nccc(C(F)(F)F)n2)cc(-c2cncc([C@]3(O)CC[C@@H](C(=O)O)CC3)c2)c1` [Example 9.69, cis-4-hydroxy-4-[5-(3-methyl-5-{[4-(trifluoromethyl)pyrimidin-2-yl]amino}phenyl)pyridin-3-yl]cyclohexanecarboxylic acid], the IC50 is under 100 nM.
`Cc1cc(Nc2nccc(C(F)(F)F)n2)cc(-c2ccnc(N3CCC[C@H]3C(N)=O)c2)c1` [Example 15.73, 1-[4-(3-methyl-5-{[4-(trifluoromethyl)pyrimidin-2-yl]amino}phenyl)pyridin-2-yl]-L-prolinamide]: the IC50 is under 100 nM.
The figure for `CCCN1CCCN(c2cc(-c3cc(C)cc(Nc4nccc(C(F)(F)F)n4)c3)ccn2)CC1` [Example 15.76, N-{3-methyl-5-[2-(4-propyl-1,4-diazepan-1-yl)pyridin-4-yl]phenyl}-4-(trifluoromethyl)pyrimidin-2-amine] is under 100 nM; for `Cc1cc(Nc2nccc(C(F)(F)F)n2)cc(-c2cccnc2)c1` [Example 2.57, N-(3-methyl-5-pyridin-3-ylphenyl)-4-(trifluoromethyl)pyrimidin-2-amine] it is under 100 nM; for `COCC1CCCN1c1cc(-c2cc(C)cc(Nc3nccc(C(F)(F)F)n3)c2)ccn1` (stereo not shown) [Example 15.69, N-(3-{2-[2-(methoxymethyl)pyrrolidin-1-yl]pyridin-4-yl}-5-methylphenyl)-4-(trifluoromethyl)pyrimidin-2-amine] it is 100 to 1000 nM.
With `Cc1cc(Nc2nccc(C)n2)cc(-c2ccc(C(C)(O)[C@H]3CC[C@H](C(=O)O)CC3)nc2)c1` (single isomer, unassigned) [Example 9.27, cis-4-[(1S or 1R)-1-hydroxy-1-(5-{3-methyl-5-[(4-methylpyrimidin-2-yl)amino]phenyl}pyridin-2-yl)ethyl]cyclohexanecarboxylic acid] the figure was under 100 nM; with `Cc1cc(Nc2nccc(C(F)(F)F)n2)cc(-c2ccc(CC(=O)O)nc2)c1` [Example 3.1, 2-(5-(3-methyl-5-((4-(trifluoromethyl)pyrimidin-2-yl)amino)phenyl)pyridin-2-yl)acetic acid], under 100 nM.
With `Cc1cc(Nc2nccc(C(F)(F)F)n2)cc(-c2ccc(S(=O)(=O)NC3CC3)nc2)c1` [Example 21.2, N-cyclopropyl-5-(3-methyl-5-{[4-(trifluoromethyl)pyrimidin-2-yl]amino}phenyl)pyridine-2-sulfonamide] the figure was 100 to 1000 nM.
In the case of `Cc1cc(Nc2nccc(C(F)(F)F)n2)cc(-c2ccc(NCC(C)(C)O)nc2)c1` [Example 7.44, 2-methyl-1-{[5-(3-methyl-5-{[4-(trifluoromethyl)pyrimidin-2-yl]amino}phenyl)pyridin-2-yl]amino}propan-2-ol], the IC50 is under 100 nM.
The figure for `Cc1cc(Nc2nccc(C(F)(F)F)n2)cc(-c2ccc(C(C)(O)C(F)(F)F)nc2)c1` (stereo not shown) [Example 2.76, 1,1,1-trifluoro-2-[5-(3-methyl-5-{[4-(trifluoromethyl)pyrimidin-2-yl]amino}phenyl)pyridin-2-yl]propan-2-ol] is 100 to 1000 nM.
